# Values quoted from earlier work in US20250170284A1, “Hydroxamic Acid Macrocyclic Agents With Pendant Chelating Moieties And Complexes Thereof” (LUMIPHORE, INC., priority 2022, published 2025).
# Settings: complex formation of the ligand with thorium(IV)
substance,measurement,value
diethylenetriamine pentaacetic acid [DTPA],Log K1,30.34
